Article PMC4728427, “Mechanism of allosteric activation of TMEM16A/ANO1 channels by a commonly used chloride channel blocker” (British Journal of Pharmacology, 2016)

What was measured:
Mouse TMEM16A [1] = target: T1, Mouse TMEM16A (Mus musculus, UniProt Q8BHY3); experiment: Whole-cell TMEM16A current in the absence of [Ca2+]i; format: cell-based; conditions: 3000 μM extracellular A9C
T1 construct: expressed in transfected cells; host or cells: HEK-293T
T1 sequence (Q8BHY3 1-960): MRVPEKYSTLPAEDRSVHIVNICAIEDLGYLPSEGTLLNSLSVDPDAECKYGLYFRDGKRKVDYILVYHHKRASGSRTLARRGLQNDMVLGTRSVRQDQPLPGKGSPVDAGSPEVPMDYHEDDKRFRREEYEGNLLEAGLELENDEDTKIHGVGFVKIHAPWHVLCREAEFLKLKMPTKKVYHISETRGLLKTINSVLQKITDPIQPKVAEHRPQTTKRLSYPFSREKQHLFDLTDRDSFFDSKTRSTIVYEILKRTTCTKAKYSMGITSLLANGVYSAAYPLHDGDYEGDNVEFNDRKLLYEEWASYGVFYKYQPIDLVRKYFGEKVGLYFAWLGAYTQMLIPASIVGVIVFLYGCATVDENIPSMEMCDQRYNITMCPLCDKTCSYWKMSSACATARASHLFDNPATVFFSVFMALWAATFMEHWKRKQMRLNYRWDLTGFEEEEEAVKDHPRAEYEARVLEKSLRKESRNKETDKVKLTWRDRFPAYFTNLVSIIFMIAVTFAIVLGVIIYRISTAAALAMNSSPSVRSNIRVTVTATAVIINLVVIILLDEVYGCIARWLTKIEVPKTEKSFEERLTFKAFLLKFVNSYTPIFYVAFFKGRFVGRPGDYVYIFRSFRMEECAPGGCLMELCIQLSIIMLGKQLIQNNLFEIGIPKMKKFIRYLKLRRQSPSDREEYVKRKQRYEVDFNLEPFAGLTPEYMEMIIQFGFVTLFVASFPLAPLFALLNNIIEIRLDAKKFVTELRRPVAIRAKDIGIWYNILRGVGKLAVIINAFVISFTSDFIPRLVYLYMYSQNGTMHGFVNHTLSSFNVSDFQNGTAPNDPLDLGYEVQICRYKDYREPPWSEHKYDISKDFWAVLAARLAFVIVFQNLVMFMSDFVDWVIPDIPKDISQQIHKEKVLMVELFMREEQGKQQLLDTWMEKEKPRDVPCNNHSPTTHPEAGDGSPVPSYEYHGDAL
Method: Current versus V m relationships were constructed by measuring currents in response to 1 s V m steps (test pulses) from −100 to +100 mV in 40 mV increments (unless stated otherwise) after a 1 s V m step to +70 mV (pre‐pulse). Pulses were elicited every 2 s from a holding V m of 0 mV. Steady‐state currents were measured at the end of the test pulses. As detailed in the Results, in the presence of 300 nM [Ca^2+]i and extracellular A9C, the test‐pulse currents reached a peak within the first ~50 ms of the test pulse. These peak currents were also measured and plotted against the V m of the test pulse. Current density was obtained by dividing the current amplitude for the cell capacitance.
The gating of TMEM16A channels is modulated by changes in [Ca^2+]i and V m. To study the effect of A9C on the intrinsic V m‐dependence of the channel, extracellular A9C (3000 μM) was applied during whole‐cell patch‐clamp in the absence of [Ca^2+]i (Figure 9). The stimulation protocol was similar to that used in Figure 1. However, because TMEM16A current in the absence of [Ca^2+]i are evident at V m greater than ~100 mV (Xiao et al., 2011), test pulses were elicited up to a value of +140 mV. Consistent with previous studies (Xiao et al., 2011), TMEM16A current in the absence of [Ca^2+]i appeared almost instantaneously in response to strong depolarizations (Figure 9). […]

Xenopus laevis TMEM16A = conditions: +80 mV, ref Reyes et al. (2015); cited from earlier work
Mouse TMEM16A [2] = target: T1, Mouse TMEM16A; experiment: Concentration jump in excised inside-out or outside-out patches, 300 nM [Ca2+]i; format: cell-based; conditions: +70 mV
Method: TMEM16A currents were measured with the whole‐cell or inside‐out patch configuration of the patch‐clamp technique as detailed in the Supporting Information. The exchange of solutions was achieved by using a local perfusion system consisting of eight tubes of 1.2 mm diameter in which the tip of the patch pipette was inserted. In some experiments, ultra‐rapid (<50 ms) changes in A9C concentration ([A9C]) (‘concentration jumps’) were achieved using a computer‐controlled perfusion system (Warner Instruments, Hamden, CT, USA).
To examine if intracellular A9C produced an activating effect on TMEM16A currents, concentration jump experiments were performed in the inside‐out configuration of the patch‐clamp technique, with A9C applied intracellularly and in the presence of 300 nM [Ca^2+]i. […] For example, I a/I 0 in the presence of 3000 μM intracellular A9C during inside‐out patches was 1.3 ± 0.1 (n = 5), while extracellular A9C produced a I a/I 0 of 27 ± 4 (n = 5) in outside‐out patches (Figure 6).

O=C(O)c1c2ccccc2cc2ccccc12 [A9C, Anthracene‐9‐carboxylic acid]
tail currents at negative Vm (Mouse TMEM16A [1]): no large increase | TMEM16A current density (Mouse TMEM16A [1]; +140 mV, control 13.0 ± 4.0): 7.3 ± 3.8 pA∙pF^−1 | Ki (Xenopus laevis TMEM16A): ~90 µM | I a/I 0 (current activation) (Mouse TMEM16A [2]; 3000 μM extracellular A9C, outside-out patches): 27 ± 4 | I a/I 0 (current activation) (Mouse TMEM16A [2]; 3000 μM intracellular A9C, inside-out patches): 1.3 ± 0.1
